Assay [1] concerns BICR78 (Oral Cavity Carcinoma). Description: Bliss excess, mean over the matrix (fraction); higher = more synergy. Put shortly: (§1)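 Cell lines grown in DMEM/F12 or RPMI with 10% FBS were plated in 1536-well plates and held 24 hours at 37°C, 5% CO2 before 72 hours of exposure to two-drug dose matrices, with DMSO typically at 0.2%. CellTiter-Glo 2.0 luminescence gave viability, which was converted to inhibition. Vehicle wells were set to 0 and blank wells to 1. Combination Emax is the second-highest inhibition in the matrix, and Bliss excess is the observed combination effect minus the expected EA + EB − EA·EB, where EA and EB are the single-agent effects.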

Assay [2] concerns EKVX (Non-Small Cell Lung Carcinoma). The assay is described as above. In short, it runs like this:
as §1

The subject of assay [3] is HCT-116 (Colorectal Carcinoma). Described as above. Put shortly:
as §1

Assay [4] concerns JHH-6 (Hepatocellular Carcinoma). The description is as above. In short, it runs like this: as §1
The subject of assay [5] is MES-SA (Other Solid Carcinomas). The assay is described as above. Put shortly:
as §1

The test system of assay [6] is SK-LMS-1 (Other Solid Carcinomas). The assay is described as above. Put shortly: as §1
Assay [7] deals with 647-V (Bladder Carcinoma). The assay can be described thus: combination Emax (second highest fraction inhibited in the dose matrix, 72 h); higher = more inhibition; extreme values may be limits of the assay. In short, it runs like this: as §1
Assay [8] concerns BICR78 (Oral Cavity Carcinoma). The assay is described as above. In short, it runs like this: as §1
The subject of assay [9] is DOK (Oral Cavity Carcinoma). The assay is described as above. In short, it runs like this: as §1
The subject of assay [10] is ETK-1 (Biliary Tract Carcinoma). The assay is described as above. In short, it runs like this:
as §1

In another assay the test system is EW-22 (Ewing's Sarcoma). The description is as above. In short, it runs like this:
as §1

Another assay has as its system HCC38 (Breast Carcinoma). The assay is described as above. Put shortly:
as §1

The subject of assay [11] is HLE (Hepatocellular Carcinoma). Described as above. In short, it runs like this: as §1
Assay [12] has as its system MES-SA (Other Solid Carcinomas). Described as above. In short, it runs like this: as §1
Assay [13] relates to P31-FUJ (Acute Myeloid Leukemia). The assay is described as above. In short, it runs like this: as §1
Assay [14] relates to SK-UT-1 (Other Solid Carcinomas). The assay is described as above. In short, it runs like this:
as §1

Assay [15] has as its system SNG-M (Endometrial Carcinoma). The assay is described as above. In short, it runs like this:
as §1

Assay [16] relates to TYK-nu (Ovarian Carcinoma). The description is as above. In short, it runs like this:
as §1

For assay [17], the system named is WSU-DLCL2 (B-Cell Non-Hodgkin's Lymphoma). The assay is described as above. In short, it runs like this: as §1
In assay [18] the test system is YT (Other Blood Carcinomas). The assay is described as above. In short, it runs like this: as §1
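Throughout, for Bliss excess, mean over the matrix: after 72 h of two-drug dosing.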

With `CC1(C)CCC(CN2CCN(c3ccc(C(=O)NS(=O)(=O)c4ccc(NCC5CCOCC5)c([N+](=O)[O-])c4)c(Oc4cnc5[nH]ccc5c4)c3)CC2)=C(c2ccc(Cl)cc2)C1` [Venetoclax] + CN(C)CCCOc1ccc(-c2ccc3ncc4c(c3c2)n(C2CCOCC2)c(=O)n4C)cn1 [AZD0156] (first compound max 1 µM, 7x7, partner max 1 µM), the Bliss excess in [1] is 0.0047; in assay [2] it was -0.0365; in assay [3] it was -0.0286; in [4] it was -0.0391; in assay [5], -0.0333; in assay [6] it was 0.001. Further, the “combination Emax” value is 0.196 in assay [7]; 0.297 in assay [8]; 0.2 in [9]; 0.202 in assay [10]; 0.866 in the assay with EW-22 (Ewing's Sarcoma); 0.193 with HCC38 (Breast Carcinoma). The “combination Emax” value is 0.171 in assay [11]; 0.138 in assay [12]; 0.861 in [13]; 0.381 in assay [14]; 0.127 in [15]; 0.174 in assay [16]. Also, the “combination Emax” value came to 0.33 in [17] and 0.475 in [18].

For the compound `CC1(C)CCC(CN2CCN(c3ccc(C(=O)NS(=O)(=O)c4ccc(NCC5CCOCC5)c([N+](=O)[O-])c4)c(Oc4cnc5[nH]ccc5c4)c3)CC2)=C(c2ccc(Cl)cc2)C1` [Venetoclax] + C=CCn1c(=O)c2cnc(Nc3ccc(N4CCN(C)CC4)cc3)nc2n1-c1cccc(C(C)(C)O)n1 [AZD1775] (first compound max 1 µM, partner max 1 µM), the Bliss excess was 0.0011 in assay [1]; -0.075 in assay [2]; -0.0765 in assay [3]; -0.0348 in assay [4]; -0.0606 in [5]; -0.0306 in assay [6]. In addition, the “combination Emax” value in assay [7] was 0.612; in assay [8] it was 0.553; in [9], 0.333; in [10], 0.497; in the assay on EW-22 (Ewing's Sarcoma), 0.924; in the assay on HCC38 (Breast Carcinoma), 0.573. The “combination Emax” value is 0.749 in assay [11]; 0.787 in [12]; 0.942 in assay [13]; 0.921 in [14]; 0.729 in assay [15]; 0.681 in [16]. In addition, the figures for the “combination Emax” value in [17] and in assay [18] were 0.995 and 0.928, respectively.

As for `CN(CCO)CC[C@H](CSc1ccccc1)Nc1ccc(S(=O)(=O)NC(=O)c2ccc(N3CCC([C@@H](O)c4ccccc4-c4ccc(Cl)cc4)CC3)cc2)cc1S(=O)(=O)C(F)(F)F` [AZD4320] + Cc1cc2ncnn2cc1Nc1ncc2c(n1)n(C1CCOCC1)c(=O)n2C [AZD7648] (first compound max 1 µM, 7x7, partner max 10 µM), the Bliss excess in [1] is -0.0167; in assay [2], -0.0398; in [3], -0.0197; in assay [4] it was -0.024; in [5], -0.0399; in assay [6] it was 0.001. In addition, the “combination Emax” value was determined as 0.219 in assay [7]; 0.198 in [8]; 0.362 in assay [9]; 0.209 in assay [10]; 0.905 in the assay with EW-22 (Ewing's Sarcoma); 0.873 in the assay with HCC38 (Breast Carcinoma). Moreover, the “combination Emax” value came to 0.33 in assay [11]; 0.226 in assay [12]; 0.858 in [13]; 0.163 in assay [14]; 0.264 in [15]; 0.344 in [16]. Further, the “combination Emax” value amounted to 0.744 in assay [17] and 0.675 in assay [18].

`Cc1cc2ncnn2cc1Nc1ncc2c(n1)n(C1CCOCC1)c(=O)n2C` [AZD7648] + C[C@@H]1COCCN1C2=NC(=NC(=C2)C3(CC3)[S@](=N)(=O)C)C4=C5C=CNC5=NC=C4 [AZD6738] (first compound max 10 µM, 7x7, partner max 10 µM): the Bliss excess was -0.0018 in assay [1]; 0.0353 in [2]; -0.0102 in assay [3]; 0.036 in assay [4]; 0.0541 in assay [5]; 0.0215 in [6]. Besides, the “combination Emax” value in assay [7] is 0.585; in [8], 0.598; in assay [9], 0.453; in assay [10], 0.621; in the assay on EW-22 (Ewing's Sarcoma), 0.851; in the assay on HCC38 (Breast Carcinoma) it was 0.565. Also, the “combination Emax” value in [11] was determined as 0.721; in assay [12], 0.632; in assay [13], 0.967; in assay [14], 0.757; in assay [15] it was 0.939; in assay [16], 0.695. Also, the “combination Emax” value in assay [17] came to 0.905; in [18] it was 0.833.

In the case of `COc1cccc(OCCCN)c1-c1cc(Nc2cnc(C#N)cn2)n[nH]1` [Prexasertib] + O=C(c1cc(Cc2n[nH]c(=O)c3ccccc23)ccc1F)N1CCN(C(=O)C2CC2)CC1 [Olaparib] (first compound max 1 µM, 7x7, partner max 10 µM), the Bliss excess was -0.0261 in [1]; -0.0217 in assay [2]; 0.0121 in assay [3]; 0.0128 in assay [4]; -0.0561 in [5]; -0.0676 in assay [6]. Moreover, the “combination Emax” value stood at 0.843 in [7]; 0.679 in [8]; 0.418 in assay [9]; 0.578 in assay [10]; 0.957 in the assay on EW-22 (Ewing's Sarcoma); 0.677 with HCC38 (Breast Carcinoma). Further, the “combination Emax” value in assay [11] is 0.842; in assay [12], 0.809; in assay [13] it was 1; in assay [14], 0.957; in assay [15] it was 0.929; in assay [16], 0.748. Besides, the entries for the “combination Emax” value in [17] and in assay [18] were 1 and 0.966, respectively.

As to `CC1(C)CCC(CN2CCN(c3ccc(C(=O)NS(=O)(=O)c4ccc(NCC5CCOCC5)c([N+](=O)[O-])c4)c(Oc4cnc5[nH]ccc5c4)c3)CC2)=C(c2ccc(Cl)cc2)C1` [Venetoclax] + C[C@@H](Nc1cc(F)cc(F)c1)c1cc(C(=O)N(C)C)cc2c(=O)cc(N3CCOCC3)oc12 [AZD8186] (first compound max 1 µM, 7x7, partner max 3 µM), the Bliss excess in assay [1] is -0.0423; in assay [2], 0.0566; in assay [3] it was -0.0421; in assay [4], -0.0135; in [5] it was -0.0299; in [6] it was -0.014. Moreover, the “combination Emax” value amounted to 0.17 in [7]; 0.434 in assay [8]; 0.188 in [9]; 0.212 in assay [10]; 0.881 in the assay with EW-22 (Ewing's Sarcoma); 0.16 in the assay on HCC38 (Breast Carcinoma). The “combination Emax” value in assay [11] was found to be 0.504; in assay [12] it was 0.168; in assay [13], 0.866; in assay [14], 0.206; in assay [15], 0.655; in assay [16], 0.495. For the same compound, the “combination Emax” value in assay [17] was determined as 0.888; in [18], 0.631.

Take `COc1cc2c(cc1OCCCCCOc1cc3c(cc1OC)C(=O)N1C=C(C)C[C@H]1C=N3)N=C[C@@H]1CC(C)=CN1C2=O` [SG3199] + O=C(c1cc(Cc2n[nH]c(=O)c3ccccc23)ccc1F)N1CCN(C(=O)C2CC2)CC1 [Olaparib] (first compound max 0.001 µM, 7x7, partner max 10 µM): the Bliss excess was -0.0456 in assay [1]; -0.0424 in assay [2]; -0.0523 in assay [3]; -0.0353 in assay [4]; 0.0626 in assay [5]; -0.0375 in [6]. For the same compound, the “combination Emax” value in assay [7] stood at 0.276; in assay [8], 0.131; in [9], 0.121; in [10], 0.188; in the assay on EW-22 (Ewing's Sarcoma), 0.894; with HCC38 (Breast Carcinoma) it was 0.0919. Also, the “combination Emax” value in assay [11] turned out to be 0.143; in [12], 0.43; in assay [13], 0.124; in assay [14], 0.046; in [15], 0.159; in [16] it was 0.369. The “combination Emax” value in [17] was 0.127; in assay [18], 0.25.

The record behind these values is the supplement of paper PMC11061612.
